Data taken from EP1369114A1, “Use of tryptophan metabolites as pharmaceutical agents” (Terness, Peter, Priv. Doz. Dr., priority 2002, dated 2003).

System: kynurenine-suppressed T cells
Assay: Polyclonal restimulation with Concanavalin A of T cells suppressed during anti-CD3 stimulation
Type: cell-based, human
Settings: anti-CD3 plus kynurenine 2 days, washed, Con-A in the absence of kynurenine
Protocol: • (a) Allogeneic T-cell response. DCs were infected with recombinant IDO-adeno-GFP (DC-IDO-GFP), IDO-adeno (DC-IDO) or with control adenoviruses (DC-adeno) at a MOI (multiplicity of infection) up to 500 for 2 days. Lymphocytes (PBMCs) were separated from peripheral blood of healthy donors by density gradient centrifugation and typed for HLA antigens. Only HLA-DR-different responder lymphocytes were used for DC-induced stimulation. […] After 5 days, ^3[H]-thymidin was added for 12hrs and the number of counts (counts per minute = cpm) determined in a (3-counter (Inotech Biosystems, Lansing, MI). In order to verify whether IDO expression or adenovirus infection harm the DCs, 10^5 cells were infected with IDO-adeno-GFP, IDO-adenovirus, or adenovirus only at a stepwise decreasing MOI (500, 250, 125, ........ 3.9) and cell viability was measured in FACS following double staining with 7-AAD and anti-CD83 antibody-PE. The percentage of dead cells never exceeded 30% for any MOI following IDO-adeno-GFP- or IDO-adeno-infection and 40% following adenovirus(control)-infection. […] After 2 days, cell proliferation was assessed by measuring ^3[H]-thymidin incorporation (cpm) as described. • (c) Tryptophan metabolite titration curves. […] After 2 days, ^3[H] thymidin was added and the number of counts recorded. […] After another 2 days, ^3[H] thymidin was added and cpm determined. […]

Question: With `Nc1ccccc1C(=O)CC(N)C(=O)O` (stereo not shown) [kynurenine] as the molecule, how does the “restimulation with Con-A after suppression” value read?
Answer: Its value is “cannot be restimulated”.
